Laboratory results: patent publication US10251874B2, “Crystalline forms of a JAK inhibitor compound” (THERAVANCE BIOPHARMA R&D IP, LLC, priority 2017, dated 2019)

Assays:
[1] = tested on: IFNγ-induced IP-10; assay: Assay 14: Pharmacodynamic assay: inhibition of IFNγ-induced IP-10 in rabbits; type: in vivo, New Zealand White rabbits; settings: rabbit
Procedure: The ability of a single intravitreal administration of test compound to inhibit interferon-gamma (IFNγ) induced IP-10 protein levels was measured in rabbit vitreous and retina/choroid tissues.
Solution formulations at concentrations of 1 mg/mL and 4 mg/mL of compound 1 of Example 2 were prepared as in Assay 12. A suspension formulation was prepared by combining crystalline compound 1 of Example 2 with 0.5% hydroxypropyl methylcellulose (HPMC E5), 0.02% Tween 80, and 9 mg/mL sodium chloride in purified water to attain a target concentration of 20 mg/mL.
Male, New Zealand White rabbits (Liveon Biolabs, India) were used for the studies. Animals were acclimated after arrival at the research facilities (Jubilant Biosys Ltd., India). Each rabbit was given a total of two intravitreal (IVT) injections with a total dose volume of 50 μL per eye. The first IVT injection (45 μL per eye) delivered test compound or vehicle at a prescribed time point (i.e. 24 hours for the solution formulations or 1 week for the suspension formulation). The second IVT injection (5 μL per eye) delivered IFNγ (1 μg/eye; Stock solution 1 mg/mL; Kingfisher Biotech) or vehicle for the induction of IP-10. In brief, on the day of the injections, rabbits were anesthetized with an intramuscular injection of ketamine (35 mg/kg) and xylazine (5 mg/kg). Once deeply anesthetized, each eye was rinsed with sterile saline and IVT injections were performed using a 0.5 mL insulin syringe (50 units=0.5 mL) with a 31-gauge needle at the supra-nasal side of the both eyes by marking the position with a Braunstein fixed caliper (2 ¾″) 3.5 mm from the rectus muscle and 4 mm from the limbus.
Tissues were collected 24 hours after the second IVT injection with IFNγ. Vitreous humor (VH) and retina/choroid tissues (R/C) were collected and homogenized, and IP-10 protein levels were measured using a rabbit CXCL10 (IP-10) ELISA kit (Kingfisher Biotech). The percent inhibition of IFNγ-induced IP-10 was calculated in comparison to the vehicle/vehicle and vehicle/IFNγ groups.

[2] = tested on: IFNγ-induced pSTAT1 in CD14+ monocytes; assay: Assay 7: Inhibition of IFNγ-induced pSTAT1 in CD14+ monocytes; type: cell-based; settings: Homo sapiens, Monocyte, flow cytometry, read-out: pIC50, inhibition of IFNγ-induced pSTAT1 (converted)
Procedure: The potency of the test compound for inhibition of interferon gamma (IFNγ) stimulated STAT1 phosphorylation was measured in CD14-positive (CD14+) monocytes derived from human whole blood (Stanford Blood Center) using flow cytometry. Because IFNγ signals through JAK, this assay provides a measure of JAK cellular potency.
Monocytes were identified using a fluorescein isothiocyanate (FITC) conjugated anti-CD14 antibody (Clone RM052, Beckman Coulter), and an Alexa Fluor 647 conjugated anti-pSTAT1 antibody (pY701, Clone 4a, BD Biosciences) was used to detect STAT1 phosphorylation.
Human peripheral blood mononuclear cells (PBMC) were isolated from human whole blood of healthy donors using a ficoll gradient. […] Cells were washed twice with FACS buffer, and then resuspended in 1:10 anti-pSTAT1 Alexa Fluor 647:FACS buffer (100 μL) for 30 min at RT in the dark, washed twice in FACS buffer, and analyzed using a LSRII flow cytometer (BD Biosciences).
To determine the inhibitory potency of the test compound, the median fluorescent intensity (MFI) of pSTAT1 was measured in CD14+ monocytes. IC50 values were determined from analysis of the inhibition curves of MFI vs compound concentration. Data are expressed as pIC50 (negative decadic logarithm IC50) values.

[3] = IVT crystalline suspension 20 mg/mL (Example 2), 1 week pre-treatment
[4] = IVT solution, 45 μg, 24 hour pre-treatment
[5] = IVT solution, 180 μg, 24 hour pre-treatment

## CCc1cc(O)c(F)cc1-c1ccc2c(-c3nc4c([nH]3)CCN(C3CCN(C)CC3)C4)n[nH]c2c1 [Compound 1, 5-ethyl-2-fluoro-4-(3-(5-(1-methylpiperidin-4-yl)-4,5,6,7-tetrahydro-1H-imidazo[4,5-c]pyridin-2-yl)-1H-indazol-6-yl)phenol]
[1]; [3]
  inhibition of IFNγ-induced IP-10 in retina/choroid tissues: 100%
  inhibition of IFNγ-induced IP-10 in vitreous humor: 100%
[1]; [4]
  inhibition of IFNγ-induced IP-10 in retina/choroid tissue: 86%
  inhibition of IFNγ-induced IP-10 in vitreous humor: 70%
[1]; [5]
  inhibition of IFNγ-induced IP-10 in retina/choroid tissue: 100%
  inhibition of IFNγ-induced IP-10 in vitreous humor: 91%
[2]
  IC50: ~31.6 nM
